Test results reported in patent publication US20240239804A1, “FUROINDAZOLE DERIVATIVES AS ANTAGONISTS OR INHIBITORS OF GPR84” (Bayer Aktiengesellschaft, priority 2021, published 2024).

The compounds below were run against T1, human GPR84 receptor (Homo sapiens, UniProt Q9NQS5) (assay: cAMP HTRF assay for identification of cellular GPR84 antagonists). Conditions: CHO-K1 cells stably expressing human GPR84; Forskolin plus agonist 6-OAU; cAMP HTRF readout; average or median values.
T1 construct: frozen aliquots prepared by acCELLerate; host or cells: CHO-K1
T1 sequence (Q9NQS5 whole entry): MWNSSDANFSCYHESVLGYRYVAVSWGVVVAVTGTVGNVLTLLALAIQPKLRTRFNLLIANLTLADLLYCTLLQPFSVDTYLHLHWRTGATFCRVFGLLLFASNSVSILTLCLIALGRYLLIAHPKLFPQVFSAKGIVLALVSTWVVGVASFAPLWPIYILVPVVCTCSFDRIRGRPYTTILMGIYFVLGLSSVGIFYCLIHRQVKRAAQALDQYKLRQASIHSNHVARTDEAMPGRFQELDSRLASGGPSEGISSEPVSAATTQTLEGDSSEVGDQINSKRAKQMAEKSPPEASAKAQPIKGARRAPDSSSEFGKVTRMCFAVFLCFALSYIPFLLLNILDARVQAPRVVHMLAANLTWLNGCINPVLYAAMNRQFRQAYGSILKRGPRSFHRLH
Assay type: cell-based
Description: cAMP HTRF® Assay for Identification of Cellular GPR84 Antagonists
By using a Homogenous Time-Resolved Fluorescence (HTRF®) based assay (#62AM5PEJ, Cisbio, Condolet, France) the inhibition of the Gi-coupled GPR84 receptor can be detected. CHO-K1 cells stably expressing human GPR84 receptor (purchased from DiscoveRx, now Eurofins) were used and treated with Forskolin (F6886, Sigma, Germany) to stimulate membrane adenylyl cyclases and thereby unspecific cAMP formation. Activation of the Gi-coupled GPR84 by a natural or small molecule agonist (e.g. 6-n-octyl aminouracile, inhouse) results in inhibition of cellular cAMP formation which can be released again by antagonists to this receptor. Detection and quantification of cellular cAMP levels in this HTRF assay is achieved by interaction between a fluorescent cAMP tracer (cAMP-d2) and an Eu-cryptate labelled anti-cAMP antibody. Following excitation at 337 nm this pairing allows for the generation of a fluorescence resonance energy transfer (FRET) between the partners and results in FRET induced emissions at 665 nm and 620 nm, the latter representing background signal by Eu-cryptate labelled anti-cAMP antibody. Maximal signal is obtained in the absence of any cellular cAMP (no competition for the binding of the tracer to the antibody). Given the combination of the Gi coupling properties of GPR84 and the competitive nature of the detection system agonist treatment should result in an increase in the HTRF signal due to lowered cAMP levels. Any signal decrease in the presence of Forskolin, agonist and compound are indicative of antagonist mediated abrogation of GPR84 signalling.
For the assay, frozen aliquots of CHO-K1 cells expressing hGPR84 (prepared by acCELLerate, Hamburg, Germany) were thawed and a cell suspension (1.67E+06 cells/mL) in assay media (Ham's F12 Nutrient Mix, Thermo Fisher Scientific, Waltham, USA; 5% fetal calf serum, Biomol, Hamburg, Germany) containing cAMP-d2 (dilution 1:20, supplied with the kit #62AM5PEJ, Cisbio, Condolet, France) was prepared. After recovery of cells for 20 minutes at 37° C., 3 μL/well cell suspension including cAMP-d2 were added to a pre-dispensed assay plate (Greiner Bio-One, Kremsmuenster, Austria) containing 50 nl/well test compound in 100% DMSO or 100% DMSO as control. This was followed by a 30 minute incubation step at room temperature. The stimulation time was started by addition of 2 μL/well assay media containing 2.5×EC80 agonist 6-OAU and 2.5×EC90 Forskolin (negative control: 2.5×EC90 Forskolin in assay media) and was continued for 30 minutes at room temperature. The reaction was stopped by addition of 3 μL/well lysis buffer containing cAMP Eu-Cryptate antibody (dilution 1:20) (both supplied with the kit #62AM5PEJ, Cisbio, Condolet, France). To enable complete lysis, plates were incubated for 60 minutes at room temperature before measurement in an HTRF reader, e.g. a PHERAstar (BMG Labtech, Ortenberg, Germany).
From the fluorescence emissions at 665 nm (FRET) and at 620 nm (background signal of Eu-cryptate) the ratio (emission at 665 nm divided by emission at 620 nm×10000) was calculated and the data were normalized (reaction without test compound, only 100% DMSO=0% inhibition; all other assay components except agonist=100% inhibition). For dose response testing on the same microtiter plate, compounds were tested at 11 different concentrations in the range of 20 μM to 0.07 nM (20 μM, 5.7 μM, 1.6 μM, 0.47 μM, 0.13 μM, 38 nM, 11 nM, 3.1 nM, 0.89 nM, 0.25 and 0.07 nM; dilution series prepared before the assay at the level of the 100-fold conc. stock solutions by serial 1:3.5 dilutions in 100% DMSO) in duplicate values for each concentration. IC50 values were calculated by 4-parameter fitting using a commercial software package (Genedata Screener, Basel, Switzerland).
Examples were tested in selected biological assays one or more times. […]

Q: How did the IC50 turn out when `Cc1c(C(=O)NCCN2CCCC2)oc2c1-c1nn(Cc3cccc(Cl)c3)cc1CC2` [Example 18, 2-[(3-chlorophenyl)methyl]-8-methyl-N-[2-(pyrrolidin-1-yl)ethyl]-4,5-dihydro-2H-furo[2,3-g]indazole-7-carboxamide] was run?
A: 1000 nM

Q: How did the IC50 turn out when `Cc1c(C(=O)NCCN2CCCCC2)oc2c1-c1nn(Cc3cccc(Cl)c3)cc1CC2` [Example 19, 2-[(3-chlorophenyl)methyl]-8-methyl-N-[2-(piperidin-1-yl)ethyl]-4,5-dihydro-2H-furo[2,3-g]indazole-7-carboxamide] was run?
A: 780 nM

Q: How did the IC50 turn out when `Cc1c(C(=O)NCCN2CCC2)oc2c1-c1nn(Cc3cccc(Cl)c3)cc1CC2` [Example 20, N-[2-(azetidin-1-yl)ethyl]-2-[(3-chlorophenyl)methyl]-8-methyl-4,5-dihydro-2H-furo[2,3-g]indazole-7-carboxamide] was run?
A: 1540 nM

Q: With `Cc1ccc(CNC(=O)c2oc3c(c2C)-c2nn(Cc4ccc(Cl)cc4)cc2CC3)cc1` [Example 22, 2-[(4-chlorophenyl)methyl]-8-methyl-N-[(4-methylphenyl)methyl]-4,5-dihydro-2H-furo[2,3-g]indazole-7-carboxamide] as the compound, how does the IC50 read?
A: 340 nM

Q: Which IC50 does the source give for `Cc1c(C(=O)NCCN2CCN(C)CC2)oc2c1-c1nn(Cc3ccc(Cl)cc3)cc1CC2` [Example 23, 2-[(4-chlorophenyl)methyl]-8-methyl-N-[2-(4-methylpiperazin-1-yl)ethyl]-4,5-dihydro-2H-furo[2,3-g]indazole-7-carboxamide] here?
A: 300 nM

Q: With `Cc1c(C(=O)NCCN2CCCC2)oc2c1-c1nn(Cc3ccc(Cl)cc3)cc1CC2` [Example 24, 2-[(4-chlorophenyl)methyl]-8-methyl-N-[2-(pyrrolidin-1-yl)ethyl]-4,5-dihydro-2H-furo[2,3-g]indazole-7-carboxamide] as the compound, how does the IC50 read?
A: 1050 nM

Q: With `Cc1c(C(=O)NCCN2CCCCC2)oc2c1-c1nn(Cc3ccc(Cl)cc3)cc1CC2` [Example 25, 2-[(4-chlorophenyl)methyl]-8-methyl-N-[2-(piperidin-1-yl)ethyl]-4,5-dihydro-2H-furo[2,3-g]indazole-7-carboxamide] as the compound, how does the IC50 read?
A: 1370 nM

Q: With `Cc1c(C(=O)NCCN2CCC2)oc2c1-c1nn(Cc3ccc(Cl)cc3)cc1CC2` [Example 26, N-[2-(azetidin-1-yl)ethyl]-2-[(4-chlorophenyl)methyl]-8-methyl-4,5-dihydro-2H-furo[2,3-g]indazole-7-carboxamide] as the compound, how does the IC50 read?
A: 1630 nM

Q: How did the IC50 turn out when `Cc1c(C(=O)NCc2ccon2)oc2c1-c1nn(Cc3ccc(Cl)cc3)cc1CC2` [Example 27, 2-[(4-chlorophenyl)methyl]-8-methyl-N-[(1,2-oxazol-3-yl)methyl]-4,5-dihydro-2H-furo[2,3-g]indazole-7-carboxamide] was run?
A: 150 nM

Q: With `Cc1c(C(=O)NCc2ccno2)oc2c1-c1nn(Cc3ccc(Cl)cc3)cc1CC2` [Example 28, 2-[(4-chlorophenyl)methyl]-8-methyl-N-[(1,2-oxazol-5-yl)methyl]-4,5-dihydro-2H-furo[2,3-g]indazole-7-carboxamide] as the compound, how does the IC50 read?
A: 1010 nM

Q: For `CC(=O)N1CCN(C(=O)CNC(=O)c2oc3c(c2C)-c2nn(Cc4ccc(Cl)cc4)cc2CC3)CC1` [Example 29, N-[2-(4-acetylpiperazin-1-yl)-2-oxoethyl]-2-[(4-chlorophenyl)methyl]-8-methyl-4,5-dihydro-2H-furo[2,3-g]indazole-7-carboxamide], which IC50 is on record?
A: 8210 nM

Q: Which IC50 does the source give for `CCNC(=O)CNC(=O)c1oc2c(c1C)-c1nn(Cc3ccc(Cl)cc3)cc1CC2` [Example 30, 2-[(4-chlorophenyl)methyl]-N-[2-(ethylamino)-2-oxoethyl]-8-methyl-4,5-dihydro-2H-furo[2,3-g]indazole-7-carboxamide] here?
A: 500 nM

Q: For `CCN(CC)C(=O)CNC(=O)c1oc2c(c1C)-c1nn(Cc3ccc(Cl)cc3)cc1CC2` [Example 31, 2-[(4-chlorophenyl)methyl]-N-[2-(diethylamino)-2-oxoethyl]-8-methyl-4,5-dihydro-2H-furo[2,3-g]indazole-7-carboxamide], which IC50 is on record?
A: 2530 nM

Q: With `COCCNC(=O)CNC(=O)c1oc2c(c1C)-c1nn(Cc3ccc(Cl)cc3)cc1CC2` [Example 32, 2-[(4-chlorophenyl)methyl]-N-{2-[(2-methoxyethyl)amino]-2-oxoethyl}-8-methyl-4,5-dihydro-2H-furo[2,3-g]indazole-7-carboxamide] as the compound, how does the IC50 read?
A: 2460 nM

Q: How did the IC50 turn out when `Cc1c(C(=O)NCC(=O)NC2CC2)oc2c1-c1nn(Cc3ccc(Cl)cc3)cc1CC2` [Example 33, 2-[(4-chlorophenyl)methyl]-N-[2-(cyclopropylamino)-2-oxoethyl]-8-methyl-4,5-dihydro-2H-furo[2,3-g]indazole-7-carboxamide] was run?
A: 3310 nM

Q: Which IC50 does the source give for `Cc1c(C(=O)NCC(=O)N2CCCC2)oc2c1-c1nn(Cc3ccc(Cl)cc3)cc1CC2` [Example 34, 2-[(4-chlorophenyl)methyl]-8-methyl-N-[2-oxo-2-(pyrrolidin-1-yl)ethyl]-4,5-dihydro-2H-furo[2,3-g]indazole-7-carboxamide] here?
A: 1140 nM

Q: `Cc1c(C(=O)NCC(=O)N2CCOCC2)oc2c1-c1nn(Cc3ccc(Cl)cc3)cc1CC2` [Example 35, 2-[(4-chlorophenyl)methyl]-8-methyl-N-[2-(morpholin-4-yl)-2-oxoethyl]-4,5-dihydro-2H-furo[2,3-g]indazole-7-carboxamide] was tested. Which IC50 did it give?
A: 3000 nM

Q: How did the IC50 turn out when `Cc1c(C(=O)NCC(=O)N(C)C)oc2c1-c1nn(Cc3ccc(Cl)cc3)cc1CC2` [Example 36, 2-[(4-chlorophenyl)methyl]-N-[2-(dimethylamino)-2-oxoethyl]-8-methyl-4,5-dihydro-2H-furo[2,3-g]indazole-7-carboxamide] was run?
A: 1190 nM

Q: How did the IC50 turn out when `Cc1c(C(=O)NCc2ccn(C)n2)oc2c1-c1nn(Cc3ccc(Cl)cc3)cc1CC2` [Example 37, 2-[(4-chlorophenyl)methyl]-8-methyl-N-[(1-methyl-1H-pyrazol-3-yl)methyl]-4,5-dihydro-2H-furo[2,3-g]indazole-7-carboxamide] was run?
A: 180 nM

Q: With `Cc1c(C(=O)NCc2nccs2)oc2c1-c1nn(Cc3ccc(Cl)cc3)cc1CC2` [Example 38, 2-[(4-chlorophenyl)methyl]-8-methyl-N-[(1,3-thiazol-2-yl)methyl]-4,5-dihydro-2H-furo[2,3-g]indazole-7-carboxamide] as the compound, how does the IC50 read?
A: 210 nM

Q: With `Cc1c(C(=O)NCc2ccccn2)oc2c1-c1nn(Cc3ccc(Cl)cc3)cc1CC2` [Example 39, 2-[(4-chlorophenyl)methyl]-8-methyl-N-[(pyridin-2-yl)methyl]-4,5-dihydro-2H-furo[2,3-g]indazole-7-carboxamide] as the compound, how does the IC50 read?
A: 280 nM

Q: With `COCCNC(=O)c1oc2c(c1C)-c1nn(Cc3ccc(Cl)cc3)cc1CC2` [Example 40, 2-[(4-chlorophenyl)methyl]-N-(2-methoxyethyl)-8-methyl-4,5-dihydro-2H-furo[2,3-g]indazole-7-carboxamide] as the compound, how does the IC50 read?
A: 410 nM

Q: With `Cc1c(C(=O)NCc2cc[nH]n2)oc2c1-c1nn(Cc3ccc(Cl)cc3)cc1CC2` [Example 41, 2-[(4-chlorophenyl)methyl]-8-methyl-N-[(1H-pyrazol-3-yl)methyl]-4,5-dihydro-2H-furo[2,3-g]indazole-7-carboxamide] as the compound, how does the IC50 read?
A: 520 nM

Q: How did the IC50 turn out when `Cc1c(C(=O)NCc2ccc(C(N)=O)cc2)oc2c1-c1nn(Cc3ccc(Cl)cc3)cc1CC2` [Example 42, N-[(4-carbamoylphenyl)methyl]-2-[(4-chlorophenyl)methyl]-8-methyl-4,5-dihydro-2H-furo[2,3-g]indazole-7-carboxamide] was run?
A: 720 nM
